Source: patent US7803558B2, “Modulation of aqueous humor outflow by targeting vascular-endothelial-cadherin in Schlemm's canal cells” (The Arizona Board of Regents on behalf of the University of …, priority 2003, dated 2010)
Like-named read-outs stand apart in the source and are kept apart here.

Key:
MDCK cell monolayers [1] = system: MDCK cell monolayers
Protocol: (§1) MDCK Cells: Madin-Darby Canine Kidney cells (MDCK), were used as a control to characterize perfusion system and for comparisons to SC monolayers. […] MDCK cells thus served as a positive control for comparisons with SC cells in subsequent experiments. MDCK Cells used in the present study were a gift from Dr. Ronald Lynch (University of Arizona) and were used between passages 14-16. Cells were grown in DMEM and maintained in humidified air containing 5% CO2 at 37° C. for at least three weeks after reaching confluence before experimentation.
Transendothelial electrical resistance (TEER) of cell monolayers cultured on Snapwell filters was measured using a TEER measurement chamber (ENDOHM-24; World Precision Instruments) in conjunction with an epithelial voltohmmeter (EVOM; World Precision Instruments). Following three rinses with prewarmed 20 mM HEPES (Sigma, St. Louis, Mo.) buffered DMEM (serum-free, pH 7.4; HEPES-DMEM), filters were carefully transferred to the TEER measurement chamber filled with HEPES-DMEM. […] The Snapwell filters containing the cell monolayers were then carefully placed into an Ussing-type chamber (Ussing system CHM5; World Precision Instruments, Sarasota, Fla.) filled with HEPES-DMEM and maintained at 37° C. in an air incubator for 15 minutes prior to pressure application. Filters were oriented such that the apical surface of cell monolayers faced the upstream chamber. Flow through cell monolayers was a function of the pressure gradient between the upstream and downstream compartments of the chamber. Pressure in the upstream compartment was generated by an elevated reservoir of HEPES-DMEM, with pressure recorded using a pressure transducer (AH 60-3002; Harvard Apparatus, Holliston, Mass.), while the downstream compartment was vented to atmospheric pressure. The rate of fluid flow through the chamber was calculated from the weight change per unit time of the reservoir measured using an isometric transducer (AH 60-2994; Harvard Apparatus). Pressure and weight data were recorded simultaneously at 30 times/sec onto hard drive of computer using a Data Acquisition System (MP100WSW; Biopac Systems, Inc., Santa Barbara, Calif.).
(§2) Once stable TEER was achieved, a valve between the reservoir and chamber was opened to expose the upstream chamber to pressure. TEER, flow, and pressure measurements were recorded for 20 minutes to establish baseline values. […] The medium in the upstream chamber was then exchanged with […] HEPES-DMEM at a rate of 2.5 ml/min, and a second 10-minute baseline period was measured.
Hydraulic conductivity was measured continuously and TEER measurements were then taken every five minutes for the duration of the trial.

MDCK cell monolayers [2] = system: MDCK cell monolayers; remark: listed apart in the source
Protocol: as §1
(§3) Transendothelial electrical resistance (TEER) of cell monolayers cultured on Snapwell filters was measured using a TEER measurement chamber (ENDOHM-24; World Precision Instruments) in conjunction with an epithelial voltohmmeter (EVOM; World Precision Instruments). Following three rinses with prewarmed 20 mM HEPES (Sigma, St. Louis, Mo.) buffered DMEM (serum-free, pH 7.4; HEPES-DMEM), filters were carefully transferred to the TEER measurement chamber filled with HEPES-DMEM. […] Pressure in the upstream compartment was generated by an elevated reservoir of HEPES-DMEM, with pressure recorded using a pressure transducer (AH 60-3002; Harvard Apparatus, Holliston, Mass.), while the downstream compartment was vented to atmospheric pressure. The rate of fluid flow through the chamber was calculated from the weight change per unit time of the reservoir measured using an isometric transducer (AH 60-2994; Harvard Apparatus). Pressure and weight data were recorded simultaneously at 30 times/sec onto hard drive of computer using a Data Acquisition System (MP100WSW; Biopac Systems, Inc., Santa Barbara, Calif.).
as §2

[3] = system: human Schlemm's canal (SC) cell monolayers
Protocol: (§4) SC Cells: Human cadaveric eye tissue was obtained from Donor Network of Arizona, San Diego Lions Eye Bank or North Carolina Lions Eye Bank within 48 hours of death for whole eyes stored in moist chambers, and within 96 hours for non-transplantable corneal anterior segments stored in Optisol (Chiron Vision, Clairmont, Calif.). Human SC cells were isolated from the cadaveric eye tissue using gelatin-coated cannulas, as described previously (Stamer W D, et al Invest Opthalmol Vis Sci 1998; 39:1804-1812) or by differential dissection (O'Brien E, Invest. Opthalmol. Vis. Sci. 2000; 41:3842-3849). Cells used in perfusion studies were isolated by both methods while only cells isolated by differential dissection were used in morphology experiments. Cells were grown and maintained in Dulbecco's Modified Eagle Medium (DMEM) and maintained in humidified air containing 5% CO2 at 37° C., as described previously (Stamer W D, et al Invest Opthalmol Vis Sci 1998; 39:1804-1812). Human SC cells were seeded at 100,000 cells/cm^2onto 1-cm^2 Snapwell Filters (Snapwell; Costar, Acton, Mass.) with 0.4-μm pore diameter in 10% FBS/DMEM. Primary cultures of eight SC cell strains were isolated from eight different cadaveric eyes without a history of glaucoma and used in the present study (SC3, SC6, SC10, SC11, SC41, SC42, SC 57 and SC68).
as §3, with “Instruments).” for “Instruments). Following three rinses with prewarmed 20 mM HEPES (Sigma, St. Louis, Mo.) buffered DMEM (serum-free, pH 7.4; HEPES-DMEM), filters were carefully transferred to the TEER measurement chamber filled with HEPES-DMEM.”
as §2

[4] = system: human Schlemm's canal (SC) cell monolayers; remark: listed apart in the source
Protocol: as §4, §3
Once stable TEER was achieved, a valve between the reservoir and chamber was opened to expose the upstream chamber to pressure. TEER, flow, and pressure measurements were recorded for 20 minutes to establish baseline values.

[5] = system: MDCK cell monolayers (cell borders); details: by 60 seconds after Na2EDTA, data not shown
Protocol: as §1

[6] = system: SC cell monolayers (cell margins)
Protocol: as §4

Compound: O=C([O-])CN(CCN(CC(=O)[O-])CC(=O)O)CC(=O)O.[Na+].[Na+] [Na2EDTA]
- recovery of TEER and hydraulic conductivity shortly after washout of Na2EDTA (MDCK cell monolayers [1]; MDCK cell monolayers, perfusion experiments): partial recovery
- minimum Na2EDTA required to effect both hydraulic conductivity and TEER (MDCK cell monolayers [1]; MDCK cell monolayers, titration experiments, time course of the experiments, n=13-15, data not shown): 25 mM
- percent change in HC relative to baseline following post-Na2EDTA rinse versus percent change between the two baseline measurements (MDCK cell monolayers [1]; MDCK, paired t-test): not
- percent change in HC relative to baseline following Na2EDTA treatment versus percent change between the two baseline measurements (MDCK cell monolayers [1]; MDCK, paired t-test, p<0.05): significantly greater
- average rate of TEER decrease after Na2EDTA treatment (MDCK cell monolayers [2]; 25 mM Na2EDTA for 5 min, 14-16 mm Hg, n=4, +/- SEM): 1.9 (+/−0.12 SEM) Ωcm^2/min
- change in TEER relative to baseline in presence of pressure (paired t-test) (MDCK cell monolayers [2]; 25 mM Na2EDTA, p=0.06): approached significance
- average rate of change of TEER following rinse with normal medium (MDCK cell monolayers [2]; after 25 mM Na2EDTA for 5 min): not significantly different from pre-Na2EDTA rates
- impact of lower concentrations on HC or TEER ([3]; SC monolayers, 0.5-2 mM Na2EDTA, n=6): not to impact significantly
- minimum Na2EDTA needed to effect both hydraulic conductivity and TEER ([3]; SC monolayers, titration experiments, time course of the experiments, n=13-15, data not shown): 5 mM
- percent change in HC relative to baseline following Na2EDTA treatment versus percent change between the two baseline measurements ([3]; SC, paired t-test, p<0.05): significantly greater
- percent change in HC relative to baseline following post-Na2EDTA rinse versus percent change between the two baseline measurements ([3]; SC, paired t-test, p<0.05): significantly greater
- time required for functional return after washout of Na2EDTA ([4]; SC monolayers, functionally via TEER measurements): 2 h
- change in TEER decrease relative to 30-minute baseline in presence of pressure (paired t-test) ([4]; SC, 5 mM Na2EDTA): no significant change
- average rate of TEER decrease after Na2EDTA treatment ([4]; SC, 5 mM Na2EDTA for 5 min, 4-6 mm Hg, n=5, +/- SEM): 0.34 (+/−0.26 SEM) Ωcm^2/min
- average rate of change of TEER following rinse with normal medium ([4]; SC, after 5 mM Na2EDTA for 5 min): not significantly different from pre-Na2EDTA rates
- effect on cell borders [5]: retracted
- time required for cell margins to return to original position / cell-cell contacts to return visually after replacement of normal medium ([6]; 10 mM Na2EDTA for 5 minutes, then normal medium, data not shown): about 30 minutes
- retraction of cell margins from each other ([6]; 60 seconds after addition of 10 mM Na2EDTA): about 2 μm
- retraction of cell margins from each other ([6]; 90 seconds after addition of 10 mM Na2EDTA): about 3 μm
